Experimental findings from ChEMBL document CHEMBL4804281, “STK4 inhibitors for treatment of hematologic malignancies” (2020) are described below.

Experiment [1] has as its target T1, Serine/threonine-protein kinase 3 (Homo sapiens) (UniProt Q13188).
T1 sequence (whole entry): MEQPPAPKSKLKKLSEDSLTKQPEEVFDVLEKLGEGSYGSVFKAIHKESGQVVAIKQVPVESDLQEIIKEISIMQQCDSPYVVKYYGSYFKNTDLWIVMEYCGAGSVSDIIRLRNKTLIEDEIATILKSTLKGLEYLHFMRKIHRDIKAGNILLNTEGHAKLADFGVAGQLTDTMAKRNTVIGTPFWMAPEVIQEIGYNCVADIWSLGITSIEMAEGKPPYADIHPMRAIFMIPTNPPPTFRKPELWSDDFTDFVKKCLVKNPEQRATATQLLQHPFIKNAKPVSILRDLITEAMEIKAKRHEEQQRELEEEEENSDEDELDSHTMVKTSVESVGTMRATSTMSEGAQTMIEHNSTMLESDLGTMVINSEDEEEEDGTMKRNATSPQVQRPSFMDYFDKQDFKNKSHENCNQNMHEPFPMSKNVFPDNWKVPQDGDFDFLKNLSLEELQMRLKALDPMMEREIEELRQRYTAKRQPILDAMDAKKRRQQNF
Description: Inhibition of STK3 (unknown origin) using fluorescein-labelled Ser/Thr-07 peptide as substrate incubated for 1 hr in presence of ATP at Km concentration by Z-LYTE assay.

For experiment [2], the target named is Aurora kinase A (Homo sapiens) (UniProt O14965). Description: Inhibition of AURA in human NCI-H929 cells at 10 uM by mass spectroscopic analysis relative to control. Type of experiment: cell-based.
The target of experiment [3] is T2, Inhibitor of nuclear factor kappa-B kinase subunit epsilon (Homo sapiens) (UniProt Q14164).
T2 sequence (whole entry): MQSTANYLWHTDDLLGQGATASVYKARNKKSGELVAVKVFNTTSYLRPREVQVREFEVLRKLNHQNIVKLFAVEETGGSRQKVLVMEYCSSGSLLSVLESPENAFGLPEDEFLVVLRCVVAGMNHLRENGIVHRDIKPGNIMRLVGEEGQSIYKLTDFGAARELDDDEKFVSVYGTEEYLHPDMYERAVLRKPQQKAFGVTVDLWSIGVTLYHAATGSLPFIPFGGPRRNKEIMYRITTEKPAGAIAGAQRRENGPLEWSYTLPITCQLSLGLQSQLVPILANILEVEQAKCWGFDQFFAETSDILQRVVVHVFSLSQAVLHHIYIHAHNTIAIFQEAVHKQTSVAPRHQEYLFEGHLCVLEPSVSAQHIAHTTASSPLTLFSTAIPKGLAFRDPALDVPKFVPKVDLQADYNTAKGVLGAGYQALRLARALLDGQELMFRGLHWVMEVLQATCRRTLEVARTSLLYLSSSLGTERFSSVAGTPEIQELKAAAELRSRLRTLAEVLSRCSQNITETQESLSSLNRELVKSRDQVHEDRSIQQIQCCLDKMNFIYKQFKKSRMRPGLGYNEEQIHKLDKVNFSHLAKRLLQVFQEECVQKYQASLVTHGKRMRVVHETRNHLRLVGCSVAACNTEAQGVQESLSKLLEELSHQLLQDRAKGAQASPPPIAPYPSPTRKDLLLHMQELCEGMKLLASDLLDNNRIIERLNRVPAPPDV
Put plainly: Inhibition of IKKE in human NCI-H929 cells at 10 uM by mass spectroscopic analysis relative to control. Type of experiment: cell-based.

For experiment [4], the target named is Tyrosine-protein kinase ABL2 (Homo sapiens) (UniProt P42684). Put plainly: Inhibition of ARG in human NCI-H929 cells at 10 uM by mass spectroscopic analysis relative to control. It is filed as cell-based.
The target in experiment [5] is Mitogen-activated protein kinase kinase kinase kinase 5 (Homo sapiens) (UniProt Q9Y4K4). Description: Inhibition of KHS1 in human NCI-H929 cells at 10 uM by mass spectroscopic analysis relative to control. It is filed as cell-based.
Experiment [6] addresses Serine/threonine-protein kinase SMG1 (Homo sapiens) (UniProt Q96Q15). Put plainly: Inhibition of SMG1 in human NCI-H929 cells at 10 uM by mass spectroscopic analysis relative to control. Type of experiment: cell-based.
The target in experiment [7] is T3, Serine/threonine-protein kinase TAO3 (Homo sapiens) (UniProt Q9H2K8).
T3 sequence (whole entry): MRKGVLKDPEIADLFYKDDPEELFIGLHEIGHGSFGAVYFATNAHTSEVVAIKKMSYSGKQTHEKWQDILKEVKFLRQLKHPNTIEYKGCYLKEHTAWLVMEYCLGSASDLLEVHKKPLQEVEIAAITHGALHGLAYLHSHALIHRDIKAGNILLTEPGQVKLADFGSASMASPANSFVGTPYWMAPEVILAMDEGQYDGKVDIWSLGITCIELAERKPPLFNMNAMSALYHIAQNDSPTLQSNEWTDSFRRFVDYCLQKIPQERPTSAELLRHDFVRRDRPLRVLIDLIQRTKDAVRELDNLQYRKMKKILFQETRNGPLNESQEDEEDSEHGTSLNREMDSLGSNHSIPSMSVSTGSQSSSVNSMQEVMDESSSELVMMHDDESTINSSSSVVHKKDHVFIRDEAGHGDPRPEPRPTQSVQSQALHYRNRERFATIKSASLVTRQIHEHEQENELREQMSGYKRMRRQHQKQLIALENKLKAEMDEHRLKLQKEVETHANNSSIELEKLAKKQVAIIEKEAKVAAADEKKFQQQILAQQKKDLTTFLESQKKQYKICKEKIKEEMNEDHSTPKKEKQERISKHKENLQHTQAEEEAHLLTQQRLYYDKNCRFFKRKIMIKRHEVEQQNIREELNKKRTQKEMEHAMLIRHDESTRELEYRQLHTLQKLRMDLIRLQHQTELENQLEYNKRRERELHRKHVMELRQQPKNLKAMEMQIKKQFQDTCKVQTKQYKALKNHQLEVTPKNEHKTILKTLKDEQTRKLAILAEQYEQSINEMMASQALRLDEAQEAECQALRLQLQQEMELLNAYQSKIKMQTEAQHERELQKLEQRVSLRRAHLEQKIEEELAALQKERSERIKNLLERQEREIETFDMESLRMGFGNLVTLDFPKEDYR
Put plainly: Inhibition of TAO3 in human NCI-H929 cells at 10 uM by mass spectroscopic analysis relative to control. Type of experiment: cell-based.

Experiment [8] deals with Microtubule-associated serine/threonine-protein kinase 1 (Homo sapiens) (UniProt Q9Y2H9). Description: Inhibition of MAST1 in human NCI-H929 cells at 10 uM by mass spectroscopic analysis relative to control. Type of experiment: cell-based.
The target of experiment [9] is Cyclin-dependent kinase 17 (Homo sapiens) (UniProt Q00537). Put plainly: Inhibition of PCTAIRE2 in human NCI-H929 cells at 10 uM by mass spectroscopic analysis relative to control. Type of experiment: cell-based.
For experiment [10], the target named is Cyclin-dependent kinase 18 (Homo sapiens) (UniProt Q07002). Description: Inhibition of PCTAIRE3 in human NCI-H929 cells at 10 uM by mass spectroscopic analysis relative to control. Type of experiment: cell-based.
Experiment [11] has as its target Mitogen-activated protein kinase kinase kinase kinase 1 (Homo sapiens) (UniProt Q92918). Put plainly: Inhibition of HPK1 in human NCI-H929 cells at 10 uM by mass spectroscopic analysis relative to control. It is filed as cell-based.
For experiment [12], the target named is NUAK family SNF1-like kinase 2 (Homo sapiens) (UniProt Q9H093). Put plainly: Inhibition of NuaK2 in human NCI-H929 cells at 10 uM by mass spectroscopic analysis relative to control. Type of experiment: cell-based.

pIC50: −log10 of the molar value. Some results are limits rather than exact numbers.

Usually pIC50 stands for the IC50 on a negative log10 scale, so that one unit is a factor of ten. As usually defined, the inhibition is how much of the control response was suppressed. A lower inhibition goes with a weak effect.

Sequence of Cyclin-dependent kinase 17 (Homo sapiens) (Q00537 whole entry, looked up): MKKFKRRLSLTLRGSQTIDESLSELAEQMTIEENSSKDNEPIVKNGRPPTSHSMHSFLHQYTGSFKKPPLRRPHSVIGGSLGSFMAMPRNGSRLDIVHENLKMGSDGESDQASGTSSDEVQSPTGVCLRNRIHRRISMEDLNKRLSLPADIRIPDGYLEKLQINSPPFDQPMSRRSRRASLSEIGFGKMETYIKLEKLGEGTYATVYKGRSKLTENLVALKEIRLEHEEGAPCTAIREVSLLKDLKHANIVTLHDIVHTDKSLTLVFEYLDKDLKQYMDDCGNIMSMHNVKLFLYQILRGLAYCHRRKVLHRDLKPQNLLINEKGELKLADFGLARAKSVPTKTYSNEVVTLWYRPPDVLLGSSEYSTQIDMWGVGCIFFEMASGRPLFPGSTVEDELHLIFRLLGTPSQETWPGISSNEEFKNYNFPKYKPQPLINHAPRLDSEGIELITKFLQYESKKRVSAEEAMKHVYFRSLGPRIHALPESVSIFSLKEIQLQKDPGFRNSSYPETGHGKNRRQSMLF
Sequence of Microtubule-associated serine/threonine-protein kinase 1 (Homo sapiens) (Q9Y2H9 whole entry, looked up): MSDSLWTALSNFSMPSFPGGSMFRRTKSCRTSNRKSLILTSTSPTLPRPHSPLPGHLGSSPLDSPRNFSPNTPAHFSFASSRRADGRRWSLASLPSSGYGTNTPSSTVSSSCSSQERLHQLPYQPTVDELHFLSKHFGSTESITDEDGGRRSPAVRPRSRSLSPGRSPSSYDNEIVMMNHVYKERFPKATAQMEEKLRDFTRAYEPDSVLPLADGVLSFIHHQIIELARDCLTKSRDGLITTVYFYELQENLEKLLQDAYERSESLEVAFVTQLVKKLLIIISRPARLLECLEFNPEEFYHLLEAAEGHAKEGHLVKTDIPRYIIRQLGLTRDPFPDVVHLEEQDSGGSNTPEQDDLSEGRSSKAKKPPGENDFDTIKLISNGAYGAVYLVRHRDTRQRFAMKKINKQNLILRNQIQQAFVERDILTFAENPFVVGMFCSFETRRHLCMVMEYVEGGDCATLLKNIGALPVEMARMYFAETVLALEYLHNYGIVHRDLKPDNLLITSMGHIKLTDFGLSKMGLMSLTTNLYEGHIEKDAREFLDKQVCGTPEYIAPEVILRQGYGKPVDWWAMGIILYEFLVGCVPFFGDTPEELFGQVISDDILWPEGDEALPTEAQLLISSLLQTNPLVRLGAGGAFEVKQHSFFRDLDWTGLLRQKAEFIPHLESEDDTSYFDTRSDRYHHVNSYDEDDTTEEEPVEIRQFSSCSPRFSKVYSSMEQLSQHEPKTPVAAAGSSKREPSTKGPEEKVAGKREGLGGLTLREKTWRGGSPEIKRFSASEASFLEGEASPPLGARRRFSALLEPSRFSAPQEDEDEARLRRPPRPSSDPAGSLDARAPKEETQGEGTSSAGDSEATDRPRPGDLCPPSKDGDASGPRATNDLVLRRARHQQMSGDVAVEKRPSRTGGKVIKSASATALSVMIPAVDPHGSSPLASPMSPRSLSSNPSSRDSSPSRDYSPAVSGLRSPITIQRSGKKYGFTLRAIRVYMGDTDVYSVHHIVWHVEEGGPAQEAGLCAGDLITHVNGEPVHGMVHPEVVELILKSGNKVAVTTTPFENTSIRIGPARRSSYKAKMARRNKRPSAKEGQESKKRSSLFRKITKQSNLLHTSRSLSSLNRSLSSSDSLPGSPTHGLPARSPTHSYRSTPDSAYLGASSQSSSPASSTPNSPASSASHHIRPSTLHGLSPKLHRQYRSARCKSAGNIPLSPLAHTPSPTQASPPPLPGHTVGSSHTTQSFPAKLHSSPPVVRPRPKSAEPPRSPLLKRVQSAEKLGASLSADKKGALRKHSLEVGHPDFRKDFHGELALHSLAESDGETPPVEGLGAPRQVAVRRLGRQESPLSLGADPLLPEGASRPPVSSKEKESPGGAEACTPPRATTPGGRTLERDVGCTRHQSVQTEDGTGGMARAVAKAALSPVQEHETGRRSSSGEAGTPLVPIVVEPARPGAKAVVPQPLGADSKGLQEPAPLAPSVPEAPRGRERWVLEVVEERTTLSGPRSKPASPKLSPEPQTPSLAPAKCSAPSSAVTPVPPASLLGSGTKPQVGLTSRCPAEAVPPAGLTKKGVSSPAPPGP
Sequence of Tyrosine-protein kinase ABL2 (Homo sapiens) (P42684 whole entry): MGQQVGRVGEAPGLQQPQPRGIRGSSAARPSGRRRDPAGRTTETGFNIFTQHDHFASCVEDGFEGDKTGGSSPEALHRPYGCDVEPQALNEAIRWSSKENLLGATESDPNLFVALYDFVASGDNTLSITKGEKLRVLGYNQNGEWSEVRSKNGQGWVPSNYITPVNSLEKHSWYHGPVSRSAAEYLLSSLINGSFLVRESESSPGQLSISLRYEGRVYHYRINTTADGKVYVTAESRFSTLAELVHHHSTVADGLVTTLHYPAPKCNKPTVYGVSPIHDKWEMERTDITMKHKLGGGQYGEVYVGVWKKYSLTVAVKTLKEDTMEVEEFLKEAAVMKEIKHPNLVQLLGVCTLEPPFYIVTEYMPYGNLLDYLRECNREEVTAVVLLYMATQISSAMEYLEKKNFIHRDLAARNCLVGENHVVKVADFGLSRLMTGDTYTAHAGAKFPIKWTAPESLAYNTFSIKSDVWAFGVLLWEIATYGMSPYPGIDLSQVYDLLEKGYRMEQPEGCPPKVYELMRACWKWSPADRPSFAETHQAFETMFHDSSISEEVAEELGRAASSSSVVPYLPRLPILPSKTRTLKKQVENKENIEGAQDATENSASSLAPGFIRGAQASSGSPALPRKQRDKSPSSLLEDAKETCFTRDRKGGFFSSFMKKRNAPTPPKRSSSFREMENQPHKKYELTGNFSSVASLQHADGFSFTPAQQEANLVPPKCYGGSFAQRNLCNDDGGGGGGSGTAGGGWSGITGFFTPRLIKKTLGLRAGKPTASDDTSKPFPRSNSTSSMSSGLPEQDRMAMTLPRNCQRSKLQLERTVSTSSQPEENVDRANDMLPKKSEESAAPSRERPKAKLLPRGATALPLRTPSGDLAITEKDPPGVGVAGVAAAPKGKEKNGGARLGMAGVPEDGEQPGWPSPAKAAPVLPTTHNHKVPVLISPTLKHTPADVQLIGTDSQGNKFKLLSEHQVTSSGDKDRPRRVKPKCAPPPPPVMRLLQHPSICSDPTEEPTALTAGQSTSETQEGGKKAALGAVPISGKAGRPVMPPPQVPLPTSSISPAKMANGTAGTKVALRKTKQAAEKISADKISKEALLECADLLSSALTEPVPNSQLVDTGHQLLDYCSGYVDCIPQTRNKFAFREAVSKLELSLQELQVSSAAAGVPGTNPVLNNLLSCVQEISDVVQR
Sequence of Cyclin-dependent kinase 18 (Homo sapiens) (Q07002 whole entry): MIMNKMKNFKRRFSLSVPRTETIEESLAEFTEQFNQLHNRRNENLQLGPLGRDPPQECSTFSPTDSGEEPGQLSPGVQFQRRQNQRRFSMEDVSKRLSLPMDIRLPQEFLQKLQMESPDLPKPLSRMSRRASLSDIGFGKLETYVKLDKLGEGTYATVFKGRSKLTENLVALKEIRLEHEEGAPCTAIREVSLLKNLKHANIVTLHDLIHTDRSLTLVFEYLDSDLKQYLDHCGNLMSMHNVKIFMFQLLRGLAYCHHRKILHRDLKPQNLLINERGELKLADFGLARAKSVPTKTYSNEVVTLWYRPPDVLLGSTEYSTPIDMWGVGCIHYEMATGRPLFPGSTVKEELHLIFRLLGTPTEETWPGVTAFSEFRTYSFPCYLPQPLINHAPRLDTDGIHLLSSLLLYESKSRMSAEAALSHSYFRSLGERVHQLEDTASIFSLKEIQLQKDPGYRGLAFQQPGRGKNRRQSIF
Sequence of Mitogen-activated protein kinase kinase kinase kinase 1 (Homo sapiens) (Q92918 whole entry, looked up): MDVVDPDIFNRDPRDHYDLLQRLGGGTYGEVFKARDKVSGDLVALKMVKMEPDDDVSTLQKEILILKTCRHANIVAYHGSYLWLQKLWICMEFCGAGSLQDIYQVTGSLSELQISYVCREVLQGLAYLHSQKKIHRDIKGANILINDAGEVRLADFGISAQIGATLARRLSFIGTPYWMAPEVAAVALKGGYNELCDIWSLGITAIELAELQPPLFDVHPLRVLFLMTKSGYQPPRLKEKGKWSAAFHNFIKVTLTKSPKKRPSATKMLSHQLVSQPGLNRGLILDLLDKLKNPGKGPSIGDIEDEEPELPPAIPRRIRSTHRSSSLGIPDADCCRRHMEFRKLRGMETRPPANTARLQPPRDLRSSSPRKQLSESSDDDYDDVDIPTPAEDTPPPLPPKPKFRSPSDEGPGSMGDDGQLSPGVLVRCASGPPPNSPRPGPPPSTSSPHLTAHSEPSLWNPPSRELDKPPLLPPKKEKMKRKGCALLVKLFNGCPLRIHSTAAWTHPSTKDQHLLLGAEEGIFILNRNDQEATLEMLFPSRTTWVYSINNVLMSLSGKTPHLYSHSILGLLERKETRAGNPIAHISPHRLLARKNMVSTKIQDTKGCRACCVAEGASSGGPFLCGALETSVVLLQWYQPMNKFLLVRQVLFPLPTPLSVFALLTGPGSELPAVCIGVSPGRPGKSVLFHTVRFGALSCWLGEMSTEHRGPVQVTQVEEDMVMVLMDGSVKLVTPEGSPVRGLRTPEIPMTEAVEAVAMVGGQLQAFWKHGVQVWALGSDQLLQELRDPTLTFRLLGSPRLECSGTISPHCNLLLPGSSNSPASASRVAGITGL
Sequence of Aurora kinase A (Homo sapiens) (O14965 whole entry): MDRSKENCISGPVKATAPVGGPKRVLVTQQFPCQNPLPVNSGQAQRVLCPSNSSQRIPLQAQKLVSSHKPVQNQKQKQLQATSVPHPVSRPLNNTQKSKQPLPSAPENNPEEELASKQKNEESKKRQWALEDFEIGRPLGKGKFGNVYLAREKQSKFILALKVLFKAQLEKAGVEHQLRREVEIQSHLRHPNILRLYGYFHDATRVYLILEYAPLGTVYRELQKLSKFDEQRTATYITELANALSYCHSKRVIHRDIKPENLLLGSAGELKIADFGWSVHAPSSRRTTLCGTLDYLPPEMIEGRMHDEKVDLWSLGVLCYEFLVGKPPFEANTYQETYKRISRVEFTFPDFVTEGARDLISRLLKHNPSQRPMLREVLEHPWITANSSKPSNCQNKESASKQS

As for `Nc1ncc(-c2cccc([N+](=O)[O-])c2F)cc1-c1ccc2c(c1)CCNC2=O`, in experiment [1], the pIC50 was over 7.40. For the same molecule, the inhibition in experiment [2] is under 90%; in experiment [3] it was 0%.
With `Nc1ncc(-c2ccc(NS(=O)(=O)C3CC3)cc2OC2CCCCC2)cc1-c1ccc2c(c1)CCNC2=O`, the inhibition was found to be 0% in [4]; 50% in experiment [5]; 50% in [6]; 0% in experiment [7]; 0% in experiment [8]; 0% in [9]. For the same molecule, the inhibition in experiment [10] was found to be 0%.
`CN(C1CC1)S(=O)(=O)c1ccc(-c2cnc(N)c(-c3ccc4c(c3)CCNC4=O)c2)c(F)c1`: the pIC50 in experiment [1] is over 7.40. Besides, the inhibition in [4] and in experiment [3] was 0% throughout.
`Nc1ncc(-c2ccc(NS(=O)(=O)C3CC3)cc2F)cc1-c1ccc2c(c1)CCNC2=O`: the inhibition was 0% in experiment [4]; under 75% in experiment [2]; 0% in [3]; 0% in experiment [8]; 0% in experiment [9]; 0% in experiment [10].
On to `Nc1ncc(-c2cccc3ncsc23)cc1-c1ccc2c(c1)CCNC2=O`, for which the pIC50 in experiment [1] was 7.40. The inhibition in experiment [4] is 50%; in experiment [11] it was 50%; in [3], 0%; in experiment [12], 50%; in experiment [6], 50%; in experiment [7], 0%.
In the case of `COc1cc(NS(=O)(=O)C2CC2)ccc1-c1cnc(N)c(-c2ccc3c(c2)CCNC3=O)c1`, the inhibition in [4], in experiment [11], in experiment [3], in experiment [5], in experiment [12] and in experiment [7] was 0% throughout. The inhibition in [8], in experiment [9] and in [10] was 0% throughout.
